Source: patent US7144720B2, “Protein and DNA thereof” (Takeda Chemical Industries, Ltd., priority 1998, dated 2006)
Peptide text beside a SMILES is read from it. * marks the point of attachment. Cbz = O=C(OCc1ccccc1)*; NHOH = ON*

T1: ADAM protein (Homo sapiens, UniProt Q9UKQ2)
T1 construct: made in house; host or cells: Escherichia coli BL21 (DE3)
T1 sequence (Q9UKQ2 199-495): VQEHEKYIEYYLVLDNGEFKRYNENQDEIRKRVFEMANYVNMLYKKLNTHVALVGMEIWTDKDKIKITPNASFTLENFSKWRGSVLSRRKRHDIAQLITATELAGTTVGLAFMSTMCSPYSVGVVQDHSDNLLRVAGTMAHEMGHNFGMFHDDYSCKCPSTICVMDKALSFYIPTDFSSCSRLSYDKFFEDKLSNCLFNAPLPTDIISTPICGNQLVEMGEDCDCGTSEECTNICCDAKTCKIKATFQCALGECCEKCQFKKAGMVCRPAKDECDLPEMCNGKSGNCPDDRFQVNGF

T2: Nma-Pro-Lys-Pro-Leu-Ala-Nva-Trp-Lys(DNP)-NH2 (Homo sapiens, UniProt Q9UKQ2)
T2 construct: made in house; host or cells: Escherichia coli BL21 (DE3)
T2 sequence (Q9UKQ2 199-495): T1 sequence (Q9UKQ2 199-495)

T3: MOCAc-Arg-Pro-Lys-Pro-Tyr-Ala-Nva-Trp-Met-Lys(DNP)-NH2 (Homo sapiens, UniProt Q9UKQ2)
T3 construct: made in house; host or cells: Escherichia coli BL21 (DE3)
T3 sequence (Q9UKQ2 199-495): T1 sequence (Q9UKQ2 199-495)

B1: recombinant ADAM protein: about 35 kDa His-tagged metalloprotease and disintegrin region of the novel human ADAM protein, expressed in Escherichia coli from pMDH (protein)
chain: T1 sequence (Q9UKQ2 199-495)
modifications: left off: small tags and cut ends
notes: about 35 kDa His-tagged metalloprotease and disintegrin region of the novel human ADAM protein, expressed in Escherichia coli from pMDH

Tests used:
Type in all cases: biochemical
[1] = target: T1, ADAM protein; test: Inhibition of the protease activity of the ADAM protein by test compounds; conditions: Nma-Pro-Lys-Pro-Leu-Ala-Nva-Trp-Lys(DNP)-NH2 substrate, 37° C., 2 hours; read-out: IC50 value (concentration of a test compound which 50% inhibits the protease activity)
Protocol: (§1) An enzymatic reaction was initiated by adding 75 μl of a buffer (83.3 mM Tris-HCl, pH 7.5, 16.7 mM NaCl, 1.67 mM CaCl2, 16.7 μM CoCl2, and 0.067% BSA) to a solution (25 μl) of the ADAM protein obtained according to the same manner as that of Example 3, and adding 25 μl of a solution of a substrate (50 μM Nma-Pro-Lys-Pro-Leu-Ala-Nva-Trp-Lys(DNP)-NH2, 0.05% BSA, and 5% DMSO). After a temperature was held at 37° C. for 2 hours, 100 μl of a 0.5M acetate buffer (pH 3.0) was added to stop the enzymatic reaction. The fluorescent intensity in the case of addition of no an enzyme solution [fluorescent intensity was measured at an excitation wavelength of 340 nm and a measuring wavelength of 450 nm using a fluorescent platereader (Corona MTP-32)] was 10, while the fluorescent intensity in the case of addition of the enzyme solution was 180.
10 μl of a test compound adjusted to the predetermined concentration (dissolved in 50% DMSO) was added to the above activity measuring system. […] From this, it was considered that search on a substance which regulates (inhibits or promotes) the protease activity of the present ADAM protein can be conducted using the present assay system.

[2] = target: T2, Nma-Pro-Lys-Pro-Leu-Ala-Nva-Trp-Lys(DNP)-NH2; test: Protease activity of ADAM protein with Nma peptide substrate; conditions: 37° C. for 2 hours; excitation 340 nm, measuring 450 nm; intensity 10 without enzyme solution
Protocol: as §1

[3] = target: T3, MOCAc-Arg-Pro-Lys-Pro-Tyr-Ala-Nva-Trp-Met-Lys(DNP)-NH2; test: Detection of the protease activity of recombinant ADAM protein (fluorogenic MOCAc peptide substrate); conditions: 37° C. for 22 hour; excitation 328 nm, 393 nm; 10 μM substrate; intensity 2 when no protein added
Protocol: 30 μL of a buffer [250 mM Tris-hydrochloric acid (pH7.5), 5 mM calcium chloride, and 10 μM zinc chloride] and 20 μL of the recombinant ADAM protein (0.8 mg/mL) obtained in Example 3 were added to a 96-well plate (Fluoro B plate, manufactured by Dainihonseiyaku). After preincuvation at 37° C. for 10 minutes, an enzymatic reaction was initiated by adding 100 μL of a 10 μM substrate [MOCAc-Arg-Pro-Lys-Pro-Tyr-Ala-Nva-Trp -Met-Lys(DNP)-NH2, manufactured by Peptide Laboratory]. After the reaction at 37° C. for 22 hour, the fluorescent intensity in the reaction solution was measured at an excitation wave length of 328 nm and […] wave length of 393 nm using a microplatereader (manufactured by Applied Biosystems). The fluorescent intensity was 2 when no recombinant ADAM protein was added, while the fluorescent intensity of 70 was shown when the protein was added. From these, it was made clear that the present ADAM protein had the protease activity. It is considered that search of a substance which regulates (inhibits and promotes) the protease activity of the present ADAM protein is possible using this assay.

Row | Molecule | IC50 [1] [µM] | fluorescent intensity [2] | fluorescent intensity [3]
1 | CC(C)C[C@H](NC(=O)[C@@H]1CCCN1C(=O)OCc1ccccc1)C(=O)NCC(=O)NO [N-CBZ-Pro-Leu-Gly-hydroxamate] (Cbz-Pro-Leu-Gly-{NHOH}) | ~100 |  | 
2 | CCCCC[C@H](CC(=O)NO)C(=O)N[C@H](C(=O)N1CCC[C@H]1CO)C(C)C [actinonin] | 600 |  | 
3 | B1 |  | 180 | 70
